Patent publication US20230159931A1, “TARGETING THE PALMOTYLATION/DEPALMOTYLATION CYCLE TO TREAT INFLAMMATORY DISEASES” (CORNELL UNIVERSITY, priority 2020, published 2023)

Tests used:
[1] = system: NLRP3 inflammasome; assay: NLRP3-mediated inflammasome activation in peritoneal macrophage (secreted IL-1 beta); format: cell-based; settings: peritoneal macrophage primed with LPS 200 ng/mL 4h; 2-BP 25 μM with ATP 5 mM or Nigericin 10 μM, 1 h
Description: (§1) FIG. 13. 2-BP affects NLRP3-mediated inflammasome activation. Peritoneal macrophage was first primed with LPS (200 ng/mL) in DMEM medium (without serum) for 4h, and then 2-BP (25 μM) and ATP (5 mM) or Nigericin (10 μM) were added to the cell culture and incubated for 1 h. ATP and nigericin are two reagents that are commonly used to activate the NLRP3 inflammasome. The activation of NLRP3 inflammasome was then monitored by measuring the level of IL-1 beta secreted to the medium.
as §1, with “Peritoneal” for “FIG. 13. 2-BP affects NLRP3-mediated inflammasome activation. Peritoneal”, “medium (FIG. 13). The data support that inhibiting DHHCs with 2-BP can decrease NLRP3 inflammasome activation.” for “medium.”

[2] = system: Bone marrow-derived macrophages (BMDM); assay: Cytokine mRNA expression during LPS priming of BMDM (qRT-PCR); format: cell-based; settings: 100 ng/mL LPS, 2-BP 10 μM or 25 μM, 6 hours
Description: (§2) FIGS. 12A-12D. 2-BP, a pan-DHHC inhibitor, decreases cytokines mRNA expression during the LPS priming step of inflammasome activation. Bone marrow-derived macrophages (BMDM) were treated with 100 ng/mL lipopolysaccharide (LPS), which can prime BMDM for inflammasome activation. A small molecule that inhibits all the DHHC family of palmitoyltransferases (DHHCs), 2-bromopalmitate (2-BP), was added at 10 μM or 25 μM together with LPS. The cells were cultured with LPS and 2-BP for 6 hours and then the mRNA levels of several pro-inflammatory cytokines: (A) IL-1 beta, (B) IL-6, (C) IL-12 beta, and (D) IL-18, were measured by quantitative reverse transcription PCR (qRT-PCR).
as §2, with “Bone” for “FIGS. 12A-12D. 2-BP, a pan-DHHC inhibitor, decreases cytokines mRNA expression during the LPS priming step of inflammasome activation. Bone”, “cytokines:” for “cytokines: (A)”, “beta (FIG. 12A), IL-6 (FIG. 12B),” for “beta, (B) IL-6, (C)”, “beta (FIG. 12C),” for “beta,”, “IL-18 (FIG. 12D),” for “(D) IL-18,”

[3] = system: SMAD2 S-palmitoylation; assay: SMAD2 S-palmitoylation in HEK293T cells treated with APT inhibitors (Alk14, in-gel fluorescence); format: cell-based, human; settings: 10 μM APT inhibitors for 24 hours; HEK293T cells with HA-DHHC7 and Flag-SMAD2
Excerpt: FIGS. 7A-7G. APT2 is the depalmitylase of SMAD2 and C-terminal phosphorylation of SMAD2 is S-palmitoylation independent. (A) C-terminal phosphorylation (Ser465/Ser467) levels of Flag-SMAD2 (p-SMAD2(C2)) in HEK293T cells expressing HA-tagged mouse DHHC1-23. SMAD2 was pulled down with Flag beads and subjected to western blot analyses. (B) HEK293T cells were transfected with HA-tagged DHHC7 and Flag-SMAD2 WT and C41/81S mutant plasmid and treated with Alk14. The S-palmitoylation level of immunoprecipitated SMAD2 was visualized by in-gel fluorescence and the p-SMAD2(C2) level was detected by western blot analyses. […] The S-palmitoylation level of immunoprecipitated SMAD2 was visualized by in-gel fluorescence. […] The cells were labeled with Alk14 and the S-palmitoylation of SMAD2 was determined by in-gel fluorescence. […] The cells were labeled with Alk14 and the S-palmitoylation of SMAD2 was determined by in-gel fluorescence and the p-SMAD2(C2) level was detected by western blot analyses. […]
Cells were treated with 50 μM palmitic acid analogue Alkyne 14 (Alk14) for 5 h and the collected and lysed in 1% NP-40 lysis buffer (25 mM Tris-HCl pH 8.0, 150 mM NaCl, 10% glycerol, 1% Nonidet P-40) with protease inhibitor cocktail. […] The protein concentration was determined by Bradford assay (23200, Thermo Fisher). […]

Row | SMILES | NLRP3 inflammasome activation (level of IL-1 beta secreted to the medium) [1] | IL-1 beta mRNA level [2] | IL-6 mRNA level [2] | IL-12 beta mRNA level [2] | IL-18 mRNA level [2] | SMAD2 S-palmitoylation signal [3]
1 | CCCCCCCCCCCCCCC(Br)C(=O)O (stereo not drawn) [2-BP, 2-bromopalmitic acid] | decrease | decrease the mRNA levels of all these cytokines in a concentration dependent manner | decrease the mRNA levels of all these cytokines in a concentration dependent manner | decrease the mRNA levels of all these cytokines in a concentration dependent manner | decrease the mRNA levels of all these cytokines in a concentration dependent manner | –
2 | CCCCCCCCCC[C@@H]1C(=O)O[C@H]1CCc1ccc(OC)c(OC)c1 [palmostatin B] | – | – | – | – | – | significantly enhanced
